Molecular target: human OX2R (Homo sapiens (Human), UniProt O43614)
Assay: IPOne (IP-1) assay in CHO cells expressing human OX2R
Type: cell-based
Conditions: for Emax: CHO, read-out: Emax (%); for Emax / Emax (%): percentage of mean max effect of a reference compound at 1 uM (100% activity by comparison to Orexin A), human OX2R; for IC50: CHO cells expressing human OX2R, IP-One detection, 2 hours incubation, EC50 = inflection point of four parameter logistic fit, read-out: hOX2R_IP_IC50
From the text: The utility of the compounds in accordance with the present invention as orexin receptor OX1R and/or OX2R agonists may be readily determined without undue experimentation by methodology well known in the art. Both the OX1R and/or OX2R G-coupled protein receptors (GPCRs) couple through the Gαq signaling pathway, which ultimately promotes calcium mobilization via inositol triphosphate (IP3) production. The half-life of IP-3 is relatively short, being rapidly metabolized to inositol monophosphate (IP-1), which can be readily detected using a commercially available assay kit (IP-One; Cisbio; cat #621PAPEC) coupled with a cell line expressing the target receptor(s) of interest. The utility of the compounds in accordance with the present invention as orexin receptor OX1R and/or OX2R agonists may be determined utilizing this assay.
In a typical experiment, the OX1 and OX2 receptor agonist activity is determined in accordance with the following general experimental method. Chinese hamster ovary (CHO) cells expressing human OX1R and/or the human OX2R were grown in Iscove's modified DMEM containing glutaMAX™, 1% G418, 100 U/mL penicillin, 100 μg/mL streptomycin and 10% heat-inactivated qualified fetal bovine serum (FBS). The OX2R cells were seeded at 10,000 cells/well/50 μL and the OX1R cells were seeded at 20,000 cells/well/50 μL into 384-well white tissue culture plates (Greiner; cat #781080). All cell/media reagents were from GIBCO-Invitrogen Corp. The seeded cell plate(s) were incubated at 37° C. with 5% CO2 and 85% humidity for 20-24 hours. On the day of the assay, assay-ready compound plates were prepared using an acoustic liquid handler (ECHO; Labcyte), which dispensed sufficient volume of test compound stock (10 mM in DMSO) or 100% DMSO to prepare 10 point, ½-log dilutions in a final volume of 202.5 nL/well in all test wells of a 384-well diamond plate (Labcyte). Following completion of assay-ready plates, importantly, the next three steps were performed with minimal delay: 1) 20 μl of 1× stimulation buffer was added to the compound plate using a Multidrop Combi (small cassette, Thermo Fisher Scientific cat #24073290); 2) culture medium was removed from the cell plate using the Bluewasher plate washer (gentle spin; BlueCatBio); 3) 14 μl of compound/stimulation buffer mixture was added to the cell plate using a Bravo liquid handler (Agilent) prior to incubating cell plates at 37° C. with 5% CO2 and 85% humidity for 1 or 2 hours (OX1R and OX2R, respectively). During this incubation, IP-one detection reagents were prepared (38:1:1 lysis buffer:D2:AB-cryptate reagents). Six μL of mixed detection reagents were added to the cell plate using a Multidrop Combi (small cassette, Thermo Fisher Scientific cat #24073290) and incubated 60 minutes at room temperature in the dark. Fluorescence signal was detected using an Envision plate reader (Perkin Elmer) [LANCE/DELFIA Dual Enh (Em: APC 665; Ex: Cy5 620)].
For each compound, data were fit to a four parameter logistic fit (ActivityBase software) and the EC50 was reported as the inflection point of the resulting curve. Percent effect for each test compound was determined as the percentage of sample raw value/mean max effect, where the mean max effect was derived from the mean raw value of 32 control wells per assay plate (using Orexin A (cat #003-30) at 1 μM for human OX1R and a reference compound at 1 uM with 100% activity previously established by comparison to Orexin A for human OX2R). The intrinsic orexin receptor agonist activity of a compound which may be used in the present invention may be determined by these assays.

human OX2R, sequence (O43614 whole entry): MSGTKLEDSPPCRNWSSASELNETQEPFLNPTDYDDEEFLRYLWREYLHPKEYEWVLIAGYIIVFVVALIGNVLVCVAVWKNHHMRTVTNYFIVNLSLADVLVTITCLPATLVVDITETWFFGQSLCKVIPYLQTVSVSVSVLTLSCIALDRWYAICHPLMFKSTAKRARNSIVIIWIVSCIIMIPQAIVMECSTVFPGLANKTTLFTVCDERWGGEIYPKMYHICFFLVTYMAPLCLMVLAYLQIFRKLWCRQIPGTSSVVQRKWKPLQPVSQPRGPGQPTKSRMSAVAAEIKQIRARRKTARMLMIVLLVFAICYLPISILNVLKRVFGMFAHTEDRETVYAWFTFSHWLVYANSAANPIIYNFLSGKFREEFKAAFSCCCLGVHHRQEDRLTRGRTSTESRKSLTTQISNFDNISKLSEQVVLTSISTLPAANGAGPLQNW

`C[C@@H]1C[C@H](NS(C)(=O)=O)[C@H](CO[C@H]2CC[C@@]3(c4ncc(F)cn4)C[C@H]3C2)N1C(=O)OCCF` [Example 62, 2-Fluoroethyl (2R,3S,5R)-2-((((1S,3S,6R)-6-(5-fluoropyrimidin-2-yl)bicyclo[4.1.0]heptan-3-yl)oxy)methyl)-5-methyl-3-(methylsulfonamido)pyrrolidine-1-carboxylate] was tested, and the Emax was 100%.

`COC(=O)N1[C@H](C)C[C@H](NS(C)(=O)=O)[C@@H]1COC1CCC2(c3nccs3)CC2C1` (stereo partly drawn) [Example 149, methyl (2R,3S,5R)-5-methyl-3-(methylsulfonamido)-2-(((6-(thiazol-2-yl)bicyclo[4.1.0]heptan-3-yl)oxy)methyl)pyrrolidine-1-carboxylate] was tested, and the Emax was 96.8%.

Work on `CCS(=O)(=O)N[C@H]1[C@H]2CCC[C@H]2N(C(=O)OC)[C@H]1COC1CCC2(c3ncc(F)cn3)CC2C1` (stereo partly drawn) [Example 129, methyl (2R,3S,3aS,6aR)-3-(ethylsulfonamido)-2-(((6-(5-fluoropyrimidin-2-yl)bicyclo[4.1.0]heptan-3-yl)oxy)methyl)hexahydrocyclopenta[b]pyrrole-1(2H)-carboxylate] yielded an Emax of 101%.

For `COC(=O)N1CC[C@H](NS(C)(=O)=O)[C@@H]1CO[C@H]1CC[C@@]2(c3ncccn3)C[C@H]2C1` (single isomer, unassigned) [Example 24], the IC50 was 238 nM and the “Emax (%)” value was 99.8%.

With `COC(=O)N1[C@H](C(F)F)C[C@H](NS(=O)(=O)C(F)F)[C@@H]1CO[C@H]1CC[C@@]2(c3ncc(F)cn3)C[C@H]2C1` (single isomer, unassigned) [Example 112] the IC50 was 0.78 nM and the Emax was 100%.

Work on `COC(=O)N1[C@H](C)C[C@H](NS(=O)(=O)C(F)F)[C@@H]1CO[C@H]1CC[C@@]2(c3ncc(F)cn3)C[C@H]2C1` [Example 48, methyl (2R,3S,5R)-3-((difluoromethyl)sulfonamido)-2-((((1S,3S,6R)-6-(5-fluoropyrimidin-2-yl)bicyclo[4.1.0]heptan-3-yl)oxy)methyl)-5-methylpyrrolidine-1-carboxylate] yielded an Emax of 101%.

`COC(=O)N1[C@H](C)C[C@H](NS(C)(=O)=O)[C@@H]1COC1CCC2(c3ncccn3)CC2C1` (single isomer, unassigned) [Example 183] gave an IC50 of 2260 nM and an Emax of 89.7%.

Work on `COC(=O)N1[C@H](C)C[C@H](NS(=O)(=O)CC(C)C)[C@@H]1CO[C@H]1CC[C@@]2(c3ncc(F)cn3)C[C@H]2C1` [Example 35, methyl (2R,3S,5R)-2-((((1S,3S,6R)-6-(5-fluoropyrimidin-2-yl)bicyclo[4.1.0]heptan-3-yl)oxy)methyl)-5-methyl-3-((2-methylpropyl)sulfonamido)pyrrolidine-1-carboxylate] yielded an Emax of 101%.

Molecule `COC(=O)N1[C@H](C(F)(F)F)C[C@H](NS(C)(=O)=O)[C@@H]1CO[C@H]1CC[C@@]2(c3ncc(F)cn3)C[C@H]2C1` (single isomer, unassigned) [Example 133] has an IC50 of 2.6 nM and an Emax of 101%.

`COC(=O)N1[C@H](C)C[C@H](NS(C)(=O)=O)[C@@H]1COC1CCC2(c3ncc(F)c(OC)n3)CC2C1` (stereo partly drawn) [Example 76, methyl (2R,3S,5R)-2-(((6-(5-fluoro-4-methoxypyrimidin-2-yl)bicyclo[4.1.0]heptan-3-yl)oxy)methyl)-5-methyl-3-(methylsulfonamido)pyrrolidine-1-carboxylate] was tested, and the Emax was 101%.

`COC(=O)N1CC[C@H](NS(C)(=O)=O)[C@@H]1CO[C@@H]1CC[C@]2(c3ncccn3)C[C@@H]2C1` (single isomer, unassigned) [Example 25] was tested, and the “Emax (%)” value was 94.7%.

Work on `C[C@@H]1C[C@H](NS(C)(=O)=O)[C@H](CO[C@H]2CC[C@@]3(c4ncc(F)cn4)C[C@H]3C2)N1C(=O)OCC(F)F` [Example 66, 2,2-difluoroethyl (2R,3S,5R)-2-((((1S,3S,6R)-6-(5-fluoropyrimidin-2-yl)bicyclo[4.1.0]heptan-3-yl)oxy)methyl)-5-methyl-3-(methylsulfonamido)pyrrolidine-1-carboxylate] yielded an Emax of 101%.

With `CCCS(=O)(=O)N[C@H]1C[C@@H](C)N(C(=O)OC)[C@H]1CO[C@H]1CC[C@@]2(c3ncc(F)cn3)C[C@H]2C1` [Example 33, methyl (2R,3S,5R)-2-((((1S,3S,6R)-6-(5-fluoropyrimidin-2-yl)bicyclo[4.1.0]heptan-3-yl)oxy)methyl)-5-methyl-3-(propylsulfonamido)pyrrolidine-1-carboxylate] the Emax was 105%.

With `COC(=O)N1[C@H](C)C[C@H](NS(=O)(=O)N(C)C)[C@@H]1CO[C@H]1CC[C@@]2(c3ncc(F)cn3)C[C@H]2C1` [Example 166, methyl (2R,3S,5R)-3-((N,N-dimethylsulfamoyl)amino)-2-((((1S,3S,6R)-6-(5-fluoropyrimidin-2-yl)bicyclo[4.1.0]heptan-3-yl)oxy)methyl)-5-methylpyrrolidine-1-carboxylate] the IC50 was 0.41 nM and the Emax was 99.4%.

`CC(C)OC(=O)N1[C@H](C)C[C@H](NS(=O)(=O)CF)[C@@H]1COC1CCC2(c3ncc(Br)cn3)CC2C1` (stereo partly drawn) [Example 108, isopropyl (2R,3S,5R)-2-(((6-(5-bromopyrimidin-2-yl)bicyclo[4.1.0]heptan-3-yl)oxy)methyl)-3-((fluoromethyl)sulfonamido)-5-methylpyrrolidine-1-carboxylate] gave an Emax of 105%.

`COC(=O)N1[C@H](C)C[C@H](NS(=O)(=O)N(C)C)[C@@H]1COC1CCC2(c3ncccn3)CC2C1` (single isomer, unassigned) [Example 187] was tested, and the IC50 was 2.1 nM and the “Emax (%)” value was 100.0%.

With `COC(=O)N1[C@H](C)C[C@H](NS(C)(=O)=O)[C@@H]1COC1CCC2(c3ncc(F)c(C4CC4)n3)CC2C1` (stereo partly drawn) [Example 74, methyl (2R,3S,5R)-2-(((6-(4-cyclopropyl-5-fluoropyrimidin-2-yl)bicyclo[4.1.0]heptan-3-yl)oxy)methyl)-5-methyl-3-(methylsulfonamido)pyrrolidine-1-carboxylate] the Emax was 84%.

For `C[C@@H]1C[C@H](NS(C)(=O)=O)[C@H](CO[C@H]2CC[C@@]3(c4ncc(F)cn4)C[C@H]3C2)N1C(=O)OCC(F)(F)F` [Example 65, 2,2,2-trifluoroethyl (2R,3S,5R)-2-((((1S,3S,6R)-6-(5-fluoropyrimidin-2-yl)bicyclo[4.1.0]heptan-3-yl)oxy)methyl)-5-methyl-3-(methylsulfonamido)pyrrolidine-1-carboxylate], the Emax was 102%.

`COC(=O)N1[C@H](C(F)F)C[C@H](NS(=O)(=O)C2CC2)[C@@H]1COC1CCC2(c3ncc(F)cn3)CC2C1` (stereo partly drawn) [Example 116, methyl (2R,3S,5S)-3-(cyclopropanesulfonamido)-5-(difluoromethyl)-2-(((6-(5-fluoropyrimidin-2-yl)bicyclo[4.1.0]heptan-3-yl)oxy)methyl)pyrrolidine-1-carboxylate] showed an Emax of 102%.

In the case of `C[C@@H]1C[C@H](NS(C)(=O)=O)[C@H](CO[C@H]2CC[C@@]3(c4ncc(F)cn4)C[C@H]3C2)N1C(=O)O[C@H]1COC[C@@H]1F` [Example 56, (3S,4S)-4-fluorotetrahydrofuran-3-yl (2R,3S,5R)-2-((((1S,3S,6R)-6-(5-fluoropyrimidin-2-yl)bicyclo[4.1.0]heptan-3-yl)oxy)methyl)-5-methyl-3-(methylsulfonamido)pyrrolidine-1-carboxylate], the Emax is reported as 104%.

Work on `COC(=O)N1[C@H](C(F)F)C[C@H](NS(C)(=O)=O)[C@@H]1CO[C@H]1CC[C@@]2(c3ncc(F)cn3)C[C@H]2C1` (single isomer, unassigned) [Example 127] yielded an IC50 of 1.7 nM and an Emax of 101%.

`COC(=O)N1[C@H](C)C[C@H](NS(C)(=O)=O)[C@@H]1CO[C@H]1CC[C@@]2(c3ncccn3)C[C@H]2C1` (single isomer, unassigned) [Example 181] was tested, and the IC50 was 4.5 nM and the Emax was 101%.
